Data taken from PubChem BioAssay AID1259407 (Chemical Carcinogenesis Research Information System (CCRIS), 2018).
Calls of active or inactive are those of the source. How the calls were made is not given here.

System: CCRIS mutagenicity, Ames/micronucleus/aberration tests
Assay: CCRIS mutagenicity studies
[1] = Test System: AMES SALMONELLA TYPHIMURIUM, Strain/Indicator: TA98, Metabolic Activation: NONE, Method: PREINCUBATION
[2] = Test System: AMES SALMONELLA TYPHIMURIUM, Strain/Indicator: TA100, Metabolic Activation: NONE, Method: PREINCUBATION
[3] = Test System: AMES SALMONELLA TYPHIMURIUM, Strain/Indicator: TA1535, Metabolic Activation: NONE, Method: PREINCUBATION
[4] = Test System: AMES SALMONELLA TYPHIMURIUM, Strain/Indicator: TA1537, Metabolic Activation: NONE, Method: PREINCUBATION
[5] = Test System: AMES SALMONELLA TYPHIMURIUM, Strain/Indicator: TA98, Metabolic Activation: RAT, LIVER, S-9, AROCLOR 1254, Method: PREINCUBATION
[6] = Test System: AMES SALMONELLA TYPHIMURIUM, Strain/Indicator: TA100, Metabolic Activation: RAT, LIVER, S-9, AROCLOR 1254, Method: PREINCUBATION

## O=[N+]([O-])c1cccc2nc3ccccc3nc12
Test System: AMES SALMONELLA TYPHIMURIUM, Strain/Indicator: TA98(NR), Metabolic Activation: NONE, Method: PREINCUBATION
  mutagenic call: active; positive
[1]
  mutagenic call: inactive; negative

## O=[N+]([O-])c1ccccc1CCl
Test System: AMES SALMONELLA TYPHIMURIUM, Strain/Indicator: TA98, Metabolic Activation: HAMSTER, LIVER, S-9, AROCLOR 1254 (10%), Method: PREINCUBATION
  mutagenic call: inactive; negative
Test System: AMES SALMONELLA TYPHIMURIUM, Strain/Indicator: TA98, Metabolic Activation: RAT, LIVER, S-9, AROCLOR 1254 (10%), Method: PREINCUBATION
  mutagenic call: inactive; negative
Test System: AMES SALMONELLA TYPHIMURIUM, Strain/Indicator: TA98, Metabolic Activation: RAT, LIVER, S-9, KANECHLOR 500, Method: PREINCUBATION
  mutagenic call: active; positive
Test System: AMES SALMONELLA TYPHIMURIUM, Strain/Indicator: TA100, Metabolic Activation: HAMSTER, LIVER, S-9, AROCLOR 1254 (10%), Method: PREINCUBATION
  mutagenic call: active; positive
[2]
  mutagenic call: active; positive
Test System: AMES SALMONELLA TYPHIMURIUM, Strain/Indicator: TA100, Metabolic Activation: RAT, LIVER, S-9, AROCLOR 1254 (10%), Method: PREINCUBATION
  mutagenic call: active; positive
Test System: AMES SALMONELLA TYPHIMURIUM, Strain/Indicator: TA100, Metabolic Activation: RAT, LIVER, S-9, KANECHLOR 500, Method: PREINCUBATION
  mutagenic call: active; positive
Test System: AMES SALMONELLA TYPHIMURIUM, Strain/Indicator: TA1535, Metabolic Activation: HAMSTER, LIVER, S-9, AROCLOR 1254 (10%), Method: PREINCUBATION
  mutagenic call: active; positive
[3]
  mutagenic call: inactive; negative
Test System: AMES SALMONELLA TYPHIMURIUM, Strain/Indicator: TA1535, Metabolic Activation: RAT, LIVER, S-9, AROCLOR 1254 (10%), Method: PREINCUBATION
  mutagenic call: active; positive
Test System: AMES SALMONELLA TYPHIMURIUM, Strain/Indicator: TA1537, Metabolic Activation: HAMSTER, LIVER, S-9, AROCLOR 1254 (10%), Method: PREINCUBATION
  mutagenic call: inactive; negative
[4]
  mutagenic call: inactive; negative
Test System: AMES SALMONELLA TYPHIMURIUM, Strain/Indicator: TA1537, Metabolic Activation: RAT, LIVER, S-9, AROCLOR 1254 (10%), Method: PREINCUBATION
  mutagenic call: inactive; negative
Test System: AMES SALMONELLA TYPHIMURIUM, Strain/Indicator: TA1538, Metabolic Activation: NONE, Method: PREINCUBATION
  mutagenic call: inactive; negative

## Cc1nccc2c1[nH]c1ccccc12
Test System: AMES SALMONELLA TYPHIMURIUM, Strain/Indicator: TA97, Metabolic Activation: NONE, Method: PREINCUBATION
  mutagenic call: active; positive
Test System: AMES SALMONELLA TYPHIMURIUM, Strain/Indicator: TA97, Metabolic Activation: RAT, LIVER, S-9, AROCLOR 1254, Method: PREINCUBATION
  mutagenic call: inactive; negative
[1]
  mutagenic call: inactive; negative
[5]
  mutagenic call: inactive; negative
[2]
  mutagenic call: inactive; negative
[6]
  mutagenic call: inactive; negative
Test System: AMES SALMONELLA TYPHIMURIUM, Strain/Indicator: TA102, Metabolic Activation: NONE, Method: PREINCUBATION
  mutagenic call: inactive; negative
Test System: AMES SALMONELLA TYPHIMURIUM, Strain/Indicator: TA102, Metabolic Activation: RAT, LIVER, S-9, AROCLOR 1254, Method: PREINCUBATION
  mutagenic call: inactive; negative

## CC(C)(C)OO
End Point: In vitro micronucleus, Test System: Chinese hamster V79 cells, Metabolic Activation: None
  mutagenic call: active; positive (hibiscus tiliaceus l methanolic extract at doses above 0.010 mg/ml had
Test System: AMES SALMONELLA TYPHIMURIUM, Strain/Indicator: TA98, Metabolic Activation: HAMSTER, LIVER, S-9, AROCLOR 1254, Method: PREINCUBATION
  mutagenic call: inactive; negative
[1]
  mutagenic call: inactive; negative
[5]
  mutagenic call: inactive; negative
Test System: AMES SALMONELLA TYPHIMURIUM, Strain/Indicator: TA100, Metabolic Activation: HAMSTER, LIVER, S-9, AROCLOR 1254, Method: PREINCUBATION
  mutagenic call: inactive; negative
[2]
  mutagenic call: inactive; negative
[6]
  mutagenic call: inactive; negative
Test System: AMES SALMONELLA TYPHIMURIUM, Strain/Indicator: TA102, Metabolic Activation: NONE, Method: STANDARD PLATE
  mutagenic call: active; positive
Test System: AMES SALMONELLA TYPHIMURIUM, Strain/Indicator: TA1535, Metabolic Activation: HAMSTER, LIVER, S-9, AROCLOR 1254, Method: PREINCUBATION
  mutagenic call: inactive; negative
[3]
  mutagenic call: inactive; negative
Test System: AMES SALMONELLA TYPHIMURIUM, Strain/Indicator: TA1535, Metabolic Activation: RAT, LIVER, S-9, AROCLOR 1254, Method: PREINCUBATION
  mutagenic call: inactive; negative
Test System: AMES SALMONELLA TYPHIMURIUM, Strain/Indicator: TA1537, Metabolic Activation: HAMSTER, LIVER, S-9, AROCLOR 1254, Method: PREINCUBATION
  mutagenic call: active; positive
[4]
  mutagenic call: active; positive
Test System: AMES SALMONELLA TYPHIMURIUM, Strain/Indicator: TA1537, Metabolic Activation: RAT, LIVER, S-9, AROCLOR 1254, Method: PREINCUBATION
  mutagenic call: active; positive
Test System: AMES SALMONELLA TYPHIMURIUM, Strain/Indicator: TA2638, Metabolic Activation: NONE, Method: STANDARD PLATE
  mutagenic call: active; positive
Test System: AMES SALMONELLA TYPHIMURIUM, Strain/Indicator: TA2638A, Metabolic Activation: NONE, Method: STANDARD PLATE
  mutagenic call: active; positive
Test System: E. COLI, Strain/Indicator: IC202, Metabolic Activation: NONE, Method: STANDARD PLATE
  mutagenic call: active; positive
Test System: E. COLI, Strain/Indicator: IC203, Metabolic Activation: NONE, Method: STANDARD PLATE
  mutagenic call: active; positive
Test System: E. COLI, Strain/Indicator: IC5059, Metabolic Activation: NONE, Method: STANDARD PLATE
  mutagenic call: active; positive
Test System: E. COLI, Strain/Indicator: IC5064, Metabolic Activation: NONE, Method: STANDARD PLATE
  mutagenic call: active; positive
Test System: E. COLI, Strain/Indicator: IC5184, Metabolic Activation: NONE, Method: STANDARD PLATE
  mutagenic call: active; positive
Test System: E. COLI, Strain/Indicator: IC5185, Metabolic Activation: NONE, Method: STANDARD PLATE
  mutagenic call: active; positive
Test System: E. COLI, Strain/Indicator: WP2 (PKM101), Metabolic Activation: NONE, Method: STANDARD PLATE
  mutagenic call: active; positive
Test System: E. COLI, Strain/Indicator: WP2 UVRA (PKM101), Metabolic Activation: NONE, Method: STANDARD PLATE
  mutagenic call: active; positive
Test System: E. coli, Strain/Indicator: WP2 IC185 trpE65, Metabolic Activation: None, Method: Plate incorporation (Test material solvent: 1 x M9 buffer)
  mutagenic call: active; positive. linalool, myrcene and eycalyptol did not inhibit mutagenesis.
Test System: E. coli, Strain/Indicator: WP2 IC202 trpE65 oxyR/pKM101, Metabolic Activation: None, Method: Plate incorporation (Test material solvent: 1 x M9 buffer)
  mutagenic call: active; positive. linalool, myrcene and eycalyptol inhibited mutagenesis.

## CCCCOc1ccc2nc3cc(Cl)ccc3c(NCCCNCCCl)c2n1
Test System: AMES SALMONELLA TYPHIMURIUM, Strain/Indicator: TA98, Metabolic Activation: NONE, Method: STANDARD PLATE
  mutagenic call: active; positive
Test System: AMES SALMONELLA TYPHIMURIUM, Strain/Indicator: TA100, Metabolic Activation: NONE, Method: STANDARD PLATE
  mutagenic call: inactive; negative
Test System: AMES SALMONELLA TYPHIMURIUM, Strain/Indicator: TA1535, Metabolic Activation: NONE, Method: STANDARD PLATE
  mutagenic call: inactive; negative
Test System: AMES SALMONELLA TYPHIMURIUM, Strain/Indicator: TA1536, Metabolic Activation: NONE, Method: STANDARD PLATE
  mutagenic call: active; positive
Test System: AMES SALMONELLA TYPHIMURIUM, Strain/Indicator: TA1537, Metabolic Activation: NONE, Method: STANDARD PLATE
  mutagenic call: active; positive
Test System: AMES SALMONELLA TYPHIMURIUM, Strain/Indicator: TA1538, Metabolic Activation: NONE, Method: STANDARD PLATE
  mutagenic call: active; positive
